These results are taken from patent US9994594B2, “Inhibitors of arginase and their therapeutic applications” (MARS, INCORPORATED, priority 2010, dated 2018).

pIC50: −log10 of the molar value. Structures can show the parent of a compound that is named as a salt.

The subject of assay [1] is MDSC. The following applies: tumor bearing mice; cited from earlier work.
Assay [2] relates to experimental autoimmune encephalomyelitis (EAE). The settings on record: compared with control animals; cited from earlier work.
In assay [3] the test system is penile erectile response. Briefly: Erectile dysfunction efficacy model: penile erectile response in vivo. The procedure: As described hereinabove, the compounds according to the invention are useful in the treatment and prevention of a variety of disorders and conditions that are affected by levels of nitric oxide (NO) regulated, in part, by arginase enzymes. The compounds are assessed for efficacy in such treatment and prevention by their performances in standardized in vivo tests. In vivo models to assess efficacy are developed for this purpose as described below.
The inventive compounds are candidate therapeutics for treating ED, as assessed by measurements of penile erectile response according to a protocol described by Wingard C, Fulton J, and Husain S, J Sex Med 4: 348-363, 2007.

The test system of assay [4] is bacterial arginase. The settings on record: H. pylori; cited from earlier work.
The subject of assay [5] is central airways. The following applies: murine chronic model; cited from earlier work.
Assay [6] concerns the target T1, human arginase I (ARG I) (Homo sapiens, UniProt P05089).
T1 sequence (P05089 1-322): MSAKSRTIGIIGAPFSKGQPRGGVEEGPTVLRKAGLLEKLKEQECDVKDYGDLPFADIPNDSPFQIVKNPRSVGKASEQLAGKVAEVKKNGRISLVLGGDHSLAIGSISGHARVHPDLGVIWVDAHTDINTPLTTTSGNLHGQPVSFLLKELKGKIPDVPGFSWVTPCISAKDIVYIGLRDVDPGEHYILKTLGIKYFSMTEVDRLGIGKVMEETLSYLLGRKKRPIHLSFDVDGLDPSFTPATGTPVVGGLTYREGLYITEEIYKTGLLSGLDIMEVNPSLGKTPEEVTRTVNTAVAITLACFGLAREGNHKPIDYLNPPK
Description: Inhibition of arginase I, spectrophotometric urea assay at 530 nm. The following applies: Formula I compounds, Table 2; read-out: Potency (ARG I). Type of assay: biochemical. The gist of the method:
(§1)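 IC50 was derived by regression of OD530 normalized to uninhibited-enzyme controls against log concentration. Urea from 60-min, 37 °C turnover of L-arginine with manganese sulfate was detected after acid o-phthaldialdehyde/primaquine quench and 10 min colour development. Arginase I and II came from 100 ng/ml stocks in pH 7.4 phosphate with ovalbumin.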

Assay [7] deals with T2, arginase II (ARG II) (Homo sapiens, UniProt P78540).
T2 sequence (P78540 23-354): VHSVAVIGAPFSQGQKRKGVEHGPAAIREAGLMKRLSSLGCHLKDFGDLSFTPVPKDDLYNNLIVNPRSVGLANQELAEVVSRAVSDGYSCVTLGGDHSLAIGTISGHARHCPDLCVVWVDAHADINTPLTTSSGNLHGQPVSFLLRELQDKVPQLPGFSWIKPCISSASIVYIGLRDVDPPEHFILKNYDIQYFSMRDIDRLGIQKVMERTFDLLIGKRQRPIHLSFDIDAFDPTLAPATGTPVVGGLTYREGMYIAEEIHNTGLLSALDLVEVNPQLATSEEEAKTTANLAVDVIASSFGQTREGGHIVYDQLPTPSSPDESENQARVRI
Briefly: Inhibition of arginase II, spectrophotometric urea assay at 530 nm. Type of assay: biochemical. The settings on record: Formula I compounds, Table 2; read-out: Potency (ARG II). The gist of the method: as §1

The conditions of assay [8]: spontaneously hypertensive animals; cited from earlier work.

Take `O=c1[nH]cc(F)c(=O)[nH]1` [5-Fluorouracil]: in assay [1], the MDSC immunesuppression entry is “eliminates MDSC immunesuppression” and the tumor growth result is “delayed tumor growth”.
For `NC(CCCCB(O)O)C(=O)O` (stereo not drawn) [ABH, amino-6-boronohexanoic acid], in assay [2], the “severity of EAE” value is “much milder form of EAE than in control animals”.
On to `N[C@@](CCCCB(O)O)(CCN1CCCCC1)C(=O)O` [Enantiomer of Ex. 13], for which the “Effect: increased erectile response relative to baseline” value in assay [3] (@ 2.5 V stimulation) is given as 0 (0 <10%). In addition, the “eliciting erectile responses in vivo” value in assay [3] (in words) is recorded as “is not”.
On to `NC(=NCCC[C@H](N)C(=O)O)NO` [NOHA], for which, in assay [4], the “CD3 expression on T-cells” value is recorded as “reestablished CD3 expression on T-cells” and the “production of NO by macrophages” value is reported as “enhanced production of NO by macrophages”.
Consider `N[C@@H](CSCCB(O)O)C(=O)O` [S-(2-boronoethyl)-L-cysteine], for which the “methacholine induced responsiveness of the central airways” value in assay [5] is given as “attenuated”.
As for `NC(CCCCB(O)O)(CCC1Cc2ccccc2CN1CC1CCCCC1)C(=O)O` (stereo not drawn) [compound 134, 2-amino-6-borono-2-(2-(2-(cyclohexylmethyl)-1,2,3,4-tetrahydroisoquinolin-3-yl)ethyl)hexanoic acid dihydrochloride], the figures for the pIC50 in assay [6] and in assay [7] were 6.60 to 10.00 and 6.00 to 6.60, respectively.
Taken in the same sequence, the figures for `CC(C)CN1Cc2ccccc2CC1CCC(N)(CCCCB(O)O)C(=O)O` (stereo not drawn) [compound 135, 2-amino-6-borono-2-(2-(2-isobutyl-1,2,3,4-tetrahydroisoquinolin-3-yl)ethyl)hexanoic acid dihydrochloride] were 6.60 to 10.00 and 6.00 to 6.60.
Taken in the same sequence, the figures for `CNC(CCCCB(O)O)(CCCNCc1ccc(Cl)c(Cl)c1)C(=O)O` (stereo not drawn) [compound 136, 6-borono-2-(3-(3,4-dichlorobenzylamino)propyl)-2-(methylamino)hexanoic acid dihydrochloride] were 6.60 to 10.00 and 6.60 to 10.00.
Take `CNC(CCCCB(O)O)(CCCN1CCCC1)C(=O)O` (stereo not drawn) [compound 137, 6-borono-2-(methylamino)-2-(3-(pyrrolidin-1-yl)propyl)hexanoic acid dihydrochloride]: the pIC50 in assay [6] and in assay [7] was 6.60 to 10.00 in each case.
For `CNC(CCCCB(O)O)(CCCNC1Cc2ccccc2C1)C(=O)O` (stereo not drawn) [compound 138, 6-borono-2-(3-(2,3-dihydro-1H-inden-2-ylamino)propyl)-2-(methylamino)hexanoic acid dihydrochloride], the pIC50 in assay [6] and in assay [7] was 6.60 to 10.00 each time.
As for `CNC(CCCCB(O)O)(CCCNCc1ccc(Cl)cc1)C(=O)O` (stereo not drawn) [compound 139, 6-borono-2-(3-(4-chlorobenzylamino)propyl)-2-(methylamino)hexanoic acid dihydrochloride], the pIC50 in assay [6] and in assay [7] was 6.60 to 10.00 in each case.
As to `NC(CCCCB(O)O)(CCCNCCc1ccc(Cl)cc1Cl)C(=O)O` (stereo not drawn) [compound 140, 2-amino-6-borono-2-(3-(2,4-dichlorophenethylamino)propyl)hexanoic acid dihydrochloride], the pIC50 in assay [6] and in assay [7] was 6.60 to 10.00 in each case.
Regarding `NC(CCCCB(O)O)(CCCNCc1ccc(Cl)c(Cl)c1)C(=O)O` (stereo not drawn) [compound 141, 2-amino-6-borono-2-(3-(3,4-dichlorobenzylamino)propyl)hexanoic acid dihydrochloride], the pIC50 in assay [6] and in assay [7] was 6.60 to 10.00 throughout.
For `NC(CCCCB(O)O)(CC[C@@H]1CCCN1)C(=O)O` (stereo partly drawn) [compound 143, 2-amino-6-borono-2-(2-((S)-pyrrolidin-2-yl)ethyl)hexanoic acid dihydrochloride], the pIC50 in assay [6] and in assay [7] was 6.60 to 10.00 throughout.
For the compound `CNC(CCCCB(O)O)(CC[C@@H]1CCCN1)C(=O)O` (stereo partly drawn) [compound 144, 6-borono-2-(methylamino)-2-(2-((S)-pyrrolidin-2-yl)ethyl)hexanoic acid dihydrochloride], the pIC50 in assay [6] and in assay [7] was 6.60 to 10.00 in each case.
As for `O=C(O)C(CCCCB(O)O)NCc1ccc(Cl)cc1` (stereo not drawn) [compound 145, 6-borono-2-(4-chlorobenzylamino)hexanoic acid hydrochloride], the pIC50 in assay [6] and in assay [7] was 5.70 to 6.00 throughout.
In the case of `CNC(CCCCB(O)O)C(=O)O` (stereo not drawn) [compound 146, 6-borono-2-(methylamino)hexanoic acid hydrochloride], the pIC50 in assay [6] was 5.70 to 6.00; in assay [7], 5.30 to 5.70.
Taken in the same sequence, the figures for `NC(CCCCB(O)O)(CCCN1CCCCC1)C(=O)O` (stereo not drawn) [compound 147, 2-amino-6-borono-2-(3-(piperidin-1-yl)propyl)hexanoic acid dihydrochloride] were 6.60 to 10.00 and 6.00 to 6.60.
The matching figures for `CNC(CCCCB(O)O)(CCCN1CCCCC1)C(=O)O` (stereo not drawn) [compound 148, 6-borono-2-(methylamino)-2-(3-(piperidin-1-yl)propyl)hexanoic acid dihydrochloride]: 6.60 to 10.00 and 6.60 to 10.00.
The matching figures for `CNC(CCCCB(O)O)(CCN1CCCCC1)C(=O)O` (stereo not drawn) [compound 149, 6-borono-2-(methylamino)-2-(2-(piperidin-1-yl)ethyl)hexanoic acid]: 6.60 to 10.00 and 6.60 to 10.00.
Take `Nc1ccn([C@@H]2O[C@H](CO)[C@@H](O)C2(F)F)c(=O)n1` [gemcitabine]: in assay [1], the MDSC immunesuppression result is “eliminates MDSC immunesuppression” and the tumor growth result is recorded as “delayed tumor growth”.
As for `N=C(NO)NCC[C@H](N)C(=O)O` [nor-NOHA, N^ω-hydroxy-nor-L-arginine], in assay [8], the blood pressure result is reported as “lowered blood pressure”; the “vascular response of resistance vessels to blood flow and pressure” value was “improved the vascular response of resistance vessels to blood flow and pressure”.
